Assay results reported in patent publication US6288091A, “Antiherpes virus compounds and methods for their preparation and use” (Boehringer Ingelheim Ltd., priority 1999, dated 2001).
Where two headings read alike, the source gives them in different places.

What was measured:
[1] = tested on: HSV-1 strain F or KOS; test: Inhibition of herpes simplex virus (HSV-1) replication in cell culture (BHK-21 cells, glycoprotein C ELISA); assay type: cell-based; conditions: Human alphaherpesvirus 1, BHK-21, Group 1 Table 1 entries
Summary of the method: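 Replication readout: ELISA for HSV-1 late glycoprotein C (mAb C11, peroxidase-OPD, 450 nm) on glutaraldehyde-fixed cells. Monolayers (~50,000 cells/well) were infected with strain F or KOS (MOI 0.05 PFU/cell), then incubated 24 h at 37° with compound in 2% FBS α-MEM. EC50 derived from % inhibition.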

[2] = tested on: HCMV (strain AD169); test: Inhibition of HCMV replication, plaque reduction assay (PRA, Hs-68 cells); assay type: cell-based, Human Cytomegalovirus (HCMV); conditions: read-out: PRA CMV EC50
Summary of the method: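 Hs-68 monolayers (80–90% confluent) were infected with ~50 PFU HCMV AD169 for 2 h at 37°, then given compound in DMEM/5% inactivated FBS, refreshed after 4 days and kept 4 more days. Plaques were counted after formaldehyde fixation and crystal violet staining. EC50 derives from percent plaque reduction versus untreated wells.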

[3] = Human betaherpesvirus 5, AD169, Hs68, Group 1 Table 1 entries

Work on `C[C@@H](c1ccccc1)N(CC(=O)Nc1ccc(-c2csc(N)n2)cc1)C(=O)c1ccncc1` [Example 58] yielded an EC50 [1] of 0.04 µM and an EC50 [2, 3] of 30 µM.

Molecule `Nc1nc(-c2ccc(NC(=O)CN(CC3CCCCC3)C(=O)c3ccccc3)cc2)cs1` [Example 60] has an EC50 [1] of 0.54 µM and an EC50 ([2]; Group 1 Table 1 entries) of 15 µM.

With `Nc1nc(-c2ccc(NC(=O)CN(CC3CCCCC3)C(=O)C3CCNCC3)cc2)cs1` [Example 62] the EC50 [1] was 5.5 µM and the EC50 [2, 3] was 38 µM.

Work on `Nc1nc(-c2ccc(NC(=O)CN(CC3CCCCC3)C(=O)C3CCCC3)cc2)cs1` [Example 63] yielded an EC50 [1] of 0.25 µM and an EC50 [2, 3] greater than 21 µM.

Work on `Nc1nc(-c2ccc(NC(=O)CN(CCc3ccccc3)C(=O)C3CCCC3)cc2)cs1` [Example 66] yielded an EC50 [1] of 0.09 µM and an EC50 [2, 3] greater than 10 µM.

In the case of `CC(C)(C)OC(=O)NCC(=O)N(CC(=O)Nc1ccc(-c2csc(N)n2)cc1)Cc1ccccc1` [Example 72], the EC50 [1] is reported as 0.67 µM and the EC50 [2, 3] is reported as 24 µM.

With `Nc1nc(-c2ccc(NC(=O)CN(CC3CCCCC3)C(=O)Cc3ccccc3)cc2)cs1` [Example 77] the EC50 [1] was 0.19 µM and the EC50 [2, 3] was 7.5 µM.

With `Nc1nc(-c2ccc(NC(=O)CN(CCc3ccccn3)C(=O)C3CCCC3)cc2)cs1` [Example 79] the EC50 [1] was 0.16 µM and the EC50 [2, 3] was 55 µM.

`CC(C)(C)CN(CC(=O)Nc1ccc(-c2csc(N)n2)cc1)C(=O)C1CCCCC1` [Example 80] showed an EC50 [1] of 0.31 µM and an EC50 [2, 3] of 9.5 µM.

`CCCC(CCC)N(CC(=O)Nc1ccc(-c2csc(N)n2)cc1)C(=O)C1CCCCC1` [Example 82] gave an EC50 [1] of 0.06 µM and an EC50 [2, 3] of 7 µM.

`Nc1nc(-c2ccc(NC(=O)CN(Cc3ccc(F)cc3)C(=O)c3ccncc3)cc2)cs1` [Example 84] showed an EC50 [1] of 0.14 µM and an EC50 [2, 3] of 37 µM.

For `CC(C)(C)OC(=O)N(CC(=O)Nc1ccc(-c2csc(N)n2)cc1)Cc1ccccc1` [Example 85], the EC50 [1] was 0.01 µM and the EC50 [2, 3] was 12 µM.

`C[C@@H](c1ccccc1)N(CC(=O)Nc1ccc(-c2csc(N)n2)cc1)C(=O)OC(C)(C)C` [Example 89] was tested, and the EC50 [1] was 0.036 µM and the EC50 [2, 3] was 38 µM.

Work on `CC(C)(C)OC(=O)N(CC(=O)Nc1ccc(-c2csc(N)n2)cc1)Cc1ccncc1` [Example 90] yielded an EC50 [1] of 0.015 µM and an EC50 [2, 3] of 88 µM.

Work on `CC(C)(C)NC(=S)N(CC(=O)Nc1ccc(-c2csc(N)n2)cc1)Cc1ccccc1` [Example 93] yielded an EC50 [1] of 0.12 µM and an EC50 [2, 3] greater than 24 µM.

Work on `Nc1nc(-c2ccc(NC(=O)CN(Cc3ccccc3)S(=O)(=O)c3ccccc3)cc2)cs1` [Example 97] yielded an EC50 [1] of 0.13 µM and an EC50 [2, 3] of 15 µM.

`CCC(CC)C(=O)N(CC(=O)Nc1ccc(-c2csc(N)n2)cc1)Cc1ccccc1` [Example 104] showed an EC50 [1] of 0.016 µM and an EC50 [2, 3] greater than 18 µM.

`CN(C)CCN(CC(=O)Nc1ccc(-c2csc(N)n2)cc1)C(=O)C1CCCCC1` [Example 140] was tested, and the EC50 [1] was 9.2 µM and the EC50 [2, 3] was 29 µM.
